Experiment [1] concerns the target T1, 1-deoxy-D-xylulose 5-phosphate reductoisomerase (Escherichia coli K-12, UniProt P45568).
T1 sequence (P45568 whole entry): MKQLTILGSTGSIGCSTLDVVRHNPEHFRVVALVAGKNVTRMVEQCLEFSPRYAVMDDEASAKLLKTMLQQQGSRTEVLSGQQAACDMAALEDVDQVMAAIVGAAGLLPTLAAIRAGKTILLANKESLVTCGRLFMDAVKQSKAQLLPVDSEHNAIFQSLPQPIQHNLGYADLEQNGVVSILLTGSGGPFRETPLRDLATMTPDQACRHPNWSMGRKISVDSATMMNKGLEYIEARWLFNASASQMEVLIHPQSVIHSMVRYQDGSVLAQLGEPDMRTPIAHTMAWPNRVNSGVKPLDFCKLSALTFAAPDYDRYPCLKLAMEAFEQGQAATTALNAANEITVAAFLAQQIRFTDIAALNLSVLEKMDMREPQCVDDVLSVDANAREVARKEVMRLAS
As to the kind of experiment: Inhibition of recombinant Escherichia coli DXR.

The test system of experiment [2] is Plasmodium falciparum. Nature of the experiment: Antimalarial activity against Plasmodium falciparum 3D7. Type of experiment: functional, organism-based.
Experiment [3] deals with Plasmodium falciparum. Nature of the experiment: Antimalarial activity against Plasmodium falciparum Dd2. In kind it is functional, organism-based.

Molecules are shown by their SMILES.

In general, IC50 refers to the concentration that gives 50% inhibition. On to `O=CN(O)CCC(c1ccc(Cl)c(Cl)c1)P(=O)(O)O` (stereo not given), for which the values for the half-inhibitory concentration (IC50) (in experiment [1]; in the experiment with Plasmodium falciparum [2]; in the experiment on Plasmodium falciparum [3]) were 59 nM, 90 nM and 28 nM, respectively.

Turning to `CC(=O)N(O)CCC(c1ccc(Cl)c(Cl)c1)P(=O)(O)O` (stereo not given), the IC50 in experiment [1] stood at 119 nM; in the experiment on Plasmodium falciparum [2], 250 nM; in the experiment on Plasmodium falciparum [3] it was 90 nM.

As to `CC(=O)N(O)CCC(c1ccccc1)P(=O)(O)O` (stereo not given), the figures for the IC50 in the experiment with Plasmodium falciparum [2] and in the experiment with Plasmodium falciparum [3] were 550 nM and 350 nM, respectively.

In the case of `CC(=O)N(O)CCC(c1ccc(C)cc1)P(=O)(O)O` (stereo not given), the IC50 in experiment [1] worked out at 396 nM; with Plasmodium falciparum [2], 950 nM; with Plasmodium falciparum [3] it was 220 nM.

In the case of `COc1ccc(C(CCN(O)C=O)P(=O)(O)O)cc1` (stereo not given), the figures for the IC50 (in experiment [1]; in the experiment on Plasmodium falciparum [2]; in the experiment with Plasmodium falciparum [3]) were 156 nM, 360 nM and 200 nM, respectively.

On to `CC(=O)N(O)CCC(c1ccc(Cl)cc1)P(=O)(O)O` (stereo not given), for which the IC50 came out at 99 nM in experiment [1], 350 nM in the experiment on Plasmodium falciparum [2] and 95 nM with Plasmodium falciparum [3].

For the compound `COc1ccc(C(CCN(O)C(C)=O)P(=O)(O)O)cc1` (stereo not given), the results for the IC50 (in experiment [1]; with Plasmodium falciparum [2]; in the experiment with Plasmodium falciparum [3]) were 459 nM, 850 nM and 270 nM, respectively.

Take `O=CN(O)CCCP(=O)(O)O` [FOSMIDOMYCIN]: the IC50 in the experiment with Plasmodium falciparum [2] was 1100 nM; in the experiment on Plasmodium falciparum [3] it was 360 nM.

On to `CC(=O)N(O)CCCP(=O)(O)O` [FR-900098], for which the IC50 is 30 nM in experiment [1], 320 nM with Plasmodium falciparum [2] and 180 nM in the experiment on Plasmodium falciparum [3].
